Source: US5866087A, “Calixarene derivatives, their preparation process and their use for extracting actinides and lanthanides” (priority 1995, dated 1999)

Experiments:
[1] = liquid-liquid extraction from aqueous nitric solution, distribution coefficient D; type: physicochemical; details: aqueous HNO3, NaNO3 4 mole/l; for D(distribution coefficient) 152-Eu: pH ≈0, 1 hour contacting; for D(distribution coefficient) 237-Np / D(distribution coefficient) 239-Pu / D(distribution coefficient) 241-Am: 1 hour
Protocol: In these examples, an evaluation takes place of the effectiveness of the calixarenes of table 1 for extracting plutonium, neptunium and americium, as well as europium (simulating all the trivalent lanthanides) of an aqueous solution containing one of these elements. The composition of the aqueous solution is as follows:
[…] Contacting takes place in a 20 ml polypropylene tube, which undergoes stirring. After 1 hour of contacting, the two phases are allowed to settle and the activity of each phase is counted by liquid scintillation or α and γ spectrometries.
The distribution coefficient D is then determined and this corresponds to the ratio of the activity of actinide in the organic phase to the activity of actinide in the aqueous phase.

[2] = supported liquid membrane transport into aqueous reextraction solution; type: physicochemical; details: for Percentage transported in 6 h. 237 Np / Percentage transported in 6 h. 239 Pu / Percentage transported in 6 h. 241 Am / Percentage of 239Pu transported in 24 h / Percentage transported in 24 h. 237 Np / Percentage transported in 24 h. 241 Am: supported liquid membrane, 0.001 or 0.0001M calixarene (CMPO 10^-2 M); for Permeability (cm/h) 237 Np / Permeability (cm/h) 239 Pu / Permeability (cm/h) 241 Am: CELGARD 2500 membrane, nitrophenylhexyl ether with 0.001 or 0.0001M calixarene (CMPO 10^-2 M), reextraction 1 mole/l methylene diphosphonic acid
Excerpt: These examples use the second embodiment of the process according to the invention for extracting europium, neptunium, plutonium and americium from aqueous solutions having the same compositions as those used in examples 7 to 16. These examples use the device shown in the attached drawing.
This device comprises an enclosure 1 subdivided into two compartents 3 and 5 by a supported liquid membrane 7, constituted by a microporous polypropylene membrane marketed under the name CELGARD 2500 and having the following characteristics:
membrane thickness: 0.025 mm.
The pores of this membrane are filled with an organic phase constituted by nitrophenylhexyl ether incorporating 0.001 or 0.0001M of calixarene.
Compartment 3 contains 50 ml of aqueous solution (NaNO3 :4 mole/l, HNO3 : 1mole/l with Eu, Np, Pu, Am); and compartment 5 contains 50ml of an aqueous reextraction solution constituted by an aqueous solution with 1 mole/l of methylene diphosphonic acid.
The two solutions are stirred and the initial activity of the solution of compartment 3 is determined, followed by the activity of the aqueous reextraction solution of compartment 5 by liquid α spectrometry and the operation is continued for one day. From it is deduced the percentage of neptunium, plutonium, americium and europium recovered in the aqueous reextraction solution after 6 and 24 h.
The calixarenes used, the permeability (in cm h^-1) of the membrane to Np and Pu, as well as the %, at the end of 6 and 24 h,of Eu, Am, Np and Pu recovered are given in table 3.

[3] = calixarene 0.001M in nitrophenyloctylether
[4] = calixarene 0.001M in nitrophenyloctylether, * = precipitation

## CCCCCOc1c2cc(NC(=O)CP(=O)(c3ccccc3)c3ccccc3)cc1Cc1cc(NC(=O)CP(=O)(c3ccccc3)c3ccccc3)cc(c1OCCCCC)Cc1cc(NC(=O)CP(=O)(c3ccccc3)c3ccccc3)cc(c1OCCCCC)Cc1cc(NC(=O)CP(=O)(c3ccccc3)c3ccccc3)cc(c1OCCCCC)C2 [Compound 8]
[1]; [3]
  D(distribution coefficient) 152-Eu: > 100
[1]; [4]
  D(distribution coefficient) 237-Np: 2
  D(distribution coefficient) 239-Pu: 100
  D(distribution coefficient) 241-Am: 250
[2]
  Percentage transported in 6 h. 237 Np: 8.5%
  Percentage transported in 6 h. 239 Pu: 79.6%
  Percentage transported in 6 h. 241 Am: 99%
  Percentage of 239Pu transported in 24 h: 80%
  Percentage transported in 24 h. 237 Np: 14.5%
  Percentage transported in 24 h. 241 Am: 100%
  Permeability (cm/h) 237 Np: < 0.2 cm/h
  Permeability (cm/h) 239 Pu: 3.6 cm/h
  Permeability (cm/h) 241 Am: 3.4 cm/h

## CCCCCCCCOc1c2cc(NC(=O)CP(=O)(c3ccccc3)c3ccccc3)cc1Cc1cc(NC(=O)CP(=O)(c3ccccc3)c3ccccc3)cc(c1OC)Cc1cc(NC(=O)CP(=O)(c3ccccc3)c3ccccc3)cc(c1OCCCCCCCC)Cc1cc(NC(=O)CP(=O)(c3ccccc3)c3ccccc3)cc(c1OC)C2 [Compound 9]
[1]; [3]
  D(distribution coefficient) 152-Eu: > 100
[1]; [4]
  D(distribution coefficient) 237-Np: 2
  D(distribution coefficient) 239-Pu: 110
  D(distribution coefficient) 241-Am: 280
[2]
  Percentage transported in 6 h. 237 Np: 52.4%
  Percentage transported in 6 h. 239 Pu: 84.1%
  Percentage transported in 6 h. 241 Am: 91.3%
  Percentage of 239Pu transported in 24 h: 86%
  Percentage transported in 24 h. 237 Np: 75.2%
  Percentage transported in 24 h. 241 Am: 100%
  Permeability (cm/h) 237 Np: 1.6 cm/h
  Permeability (cm/h) 239 Pu: 4.2 cm/h
  Permeability (cm/h) 241 Am: 2.9 cm/h

## CCCCC(CC)COc1c2cc(NC(=O)CP(=O)(c3ccccc3)c3ccccc3)cc1Cc1cc(NC(=O)CP(=O)(c3ccccc3)c3ccccc3)cc(c1OCC(CC)CCCC)Cc1cc(NC(=O)CP(=O)(c3ccccc3)c3ccccc3)cc(c1OCC(CC)CCCC)Cc1cc(NC(=O)CP(=O)(c3ccccc3)c3ccccc3)cc(c1OCC(CC)CCCC)C2 (stereo not drawn) [Compound 10]
[1]; calixarene 0.0005M
  D(distribution coefficient) 152-Eu: 1.5
  D(distribution coefficient) 237-Np: 2
  D(distribution coefficient) 239-Pu: 20
  D(distribution coefficient) 241-Am: 4.5
[2]
  Percentage transported in 6 h. 237 Np: 19.8%
  Percentage transported in 6 h. 239 Pu: 53.5%
  Percentage transported in 6 h. 241 Am: 27.8%
  Percentage of 239Pu transported in 24 h: 76.6%
  Percentage transported in 24 h. 237 Np: 30.4%
  Percentage transported in 24 h. 241 Am: 62.4%
  Permeability (cm/h) 237 Np: 0.6 cm/h
  Permeability (cm/h) 239 Pu: 2 cm/h
  Permeability (cm/h) 241 Am: 0.5 cm/h
